{
  "source": "paper PMC6325233",
  "about": "“A Novel Actin Binding Drug with In Vivo Efficacy” (Antimicrobial Agents and Chemotherapy, 2018)",
  "assay_in_all_cases": "MIC susceptibility testing",
  "type_in_all_cases": "cell-based",
  "key": {"[1]": {"test_system": "Aspergillus fumigatus 28435", "parameters": "key to MIC, 50% inhibition: -: indicates absence of isolates with 50% inhibition endpoint", "settings": "CLSI M38-A2", "method": "(§1) Occidiofungin was purified from a liquid culture of Burkholderia contaminans MS14 as previously described ([21]). MIC susceptibility testing was performed according to the CLSI M27-A3 and M38-A2 standards for the susceptibility testing of yeasts and filamentous fungi, respectively. S. cerevisiae deletion mutants were obtained from the commercially available BY4741 deletion library (Thermo Scientific)."}, "[2]": {"test_system": "Cryptococcus neoformans 28446", "parameters": "key to MIC, 50% inhibition: -: indicates absence of isolates with 50% inhibition endpoint", "settings": "CLSI M27-A3; 72 hours", "method": "as §1"}, "Fusarium oxysporum 27718": {"test_system": "Fusarium oxysporum 27718", "parameters": "key to MIC, 50% inhibition: -: indicates absence of isolates with 50% inhibition endpoint", "settings": "CLSI M38-A2", "method": "as §1"}, "[3]": {"test_system": "Rhizopus microsporus 28506", "parameters": "key to MIC, 50% inhibition: -: indicates absence of isolates with 50% inhibition endpoint", "settings": "CLSI M38-A2", "method": "as §1"}, "Mucor racemosus 27784": {"test_system": "Mucor racemosus 27784", "parameters": "key to MIC, 50% inhibition: -: indicates absence of isolates with 50% inhibition endpoint", "settings": "CLSI M38-A2", "method": "as §1"}, "Aspergillus flavus 28517": {"test_system": "Aspergillus flavus 28517", "parameters": "key to MIC, 50% inhibition: -: indicates absence of isolates with 50% inhibition endpoint", "settings": "CLSI M38-A2", "method": "as §1"}, "Aspergillus flavus 28445": {"test_system": "Aspergillus flavus 28445", "parameters": "key to MIC, 50% inhibition: -: indicates absence of isolates with 50% inhibition endpoint", "settings": "CLSI M38-A2", "method": "as §1"}, "Candida tropicalis 9624": {"test_system": "Candida tropicalis 9624", "parameters": "key to MIC, 50% inhibition: -: indicates absence of isolates with 50% inhibition endpoint", "settings": "CLSI M27-A3", "method": "as §1"}, "[4]": {"test_system": "Rhizopus microsporus 27785", "parameters": "key to MIC, 50% inhibition: -: indicates absence of isolates with 50% inhibition endpoint", "settings": "CLSI M38-A2", "method": "as §1"}, "[5]": {"test_system": "Aspergillus fumigatus 28434", "parameters": "key to MIC, 50% inhibition: -: indicates absence of isolates with 50% inhibition endpoint", "settings": "CLSI M38-A2", "method": "as §1"}, "Candida glabrata 25742": {"test_system": "Candida glabrata 25742", "parameters": "key to MIC, 50% inhibition: -: indicates absence of isolates with 50% inhibition endpoint", "settings": "CLSI M27-A3", "method": "as §1"}, "[6]": {"test_system": "Cryptococcus neoformans 27708", "parameters": "key to MIC, 50% inhibition: -: indicates absence of isolates with 50% inhibition endpoint", "settings": "CLSI M27-A3; 72 hours", "method": "as §1"}, "Candida krusei 9541": {"test_system": "Candida krusei 9541", "parameters": "key to MIC, 50% inhibition: -: indicates absence of isolates with 50% inhibition endpoint", "settings": "CLSI M27-A3", "method": "as §1"}, "[7]": {"test_system": "Saccharomyces cerevisiae BY4741", "method": "as §1\nThe addition of an alkyne reactive group to the primary amine on occidiofungin was performed initially at the Texas A&M Natural Products LINCHPIN Laboratory at Texas A&M University and subsequently at the CPRIT Synthesis and Drug-Lead Discovery Laboratory at Baylor University (see Fig. S1 in the supplemental material). A solution of triethylamine and acetonitrile was prepared by dissolving 10 µl of triethylamine in 11.7 ml of acetonitrile. A stock solution of acetonitrile and the reagents was prepared by adding 2,5-dioxopyrrolidin-1-yl hex-5-ynoate (1.40 mg, 6.69 µmole, 8.2 equivalent) to 1.08 ml of the triethylamine and acetonitrile solution prepared above. Occidiofungin (1 mg, 0.82 µmole, 1 equiv.) was added to the stock solution of acetonitrile and reagents (400 µl) containing triethylamine (0.34 µl, 2.46 µmole, 3 equiv.) and 2,5-dioxopyrrolidin-1-yl hex-5-ynoate ([…], 2.46 µmole, 3 eq). […]"}},
  "data": [
    {"substance": "occidiofungin", "values": [
      {"measurement": "MIC, 50% inhibition", "setting": "[1]; 24 hours", "result": "-"},
      {"measurement": "MIC, 100% inhibition", "setting": "[1]; 24 hours", "result": 2, "unit": "µg/mL"},
      {"measurement": "MIC, 50% inhibition", "setting": "[1]; 48 hours", "result": "-"},
      {"measurement": "MIC, 100% inhibition", "setting": "[1]; 48 hours", "result": 2, "unit": "µg/mL"},
      {"measurement": "MIC, 50% inhibition", "setting": "[2]", "result": "-"},
      {"measurement": "MIC, 100% inhibition", "setting": "[2]", "result": 1, "unit": "µg/mL"},
      {"measurement": "MIC, 50% inhibition", "setting": "Fusarium oxysporum 27718; 24 hours", "result": 2, "unit": "µg/mL"},
      {"measurement": "MIC, 100% inhibition", "setting": "Fusarium oxysporum 27718; 24 hours", "result": 4, "unit": "µg/mL"},
      {"measurement": "MIC, 50% inhibition", "setting": "Fusarium oxysporum 27718; 48 hours", "result": "-"},
      {"measurement": "MIC, 100% inhibition", "setting": "Fusarium oxysporum 27718; 48 hours", "result": 4, "unit": "µg/mL"},
      {"measurement": "MIC, 50% inhibition", "setting": "[3]; 24 hours", "result": 4, "unit": "µg/mL"},
      {"measurement": "MIC, 100% inhibition", "setting": "[3]; 24 hours", "result": 8, "unit": "µg/mL"},
      {"measurement": "MIC, 50% inhibition", "setting": "[3]; 48 hours", "result": "-"},
      {"measurement": "MIC, 100% inhibition", "setting": "[3]; 48 hours", "result": 8, "unit": "µg/mL"},
      {"measurement": "MIC, 50% inhibition", "setting": "Mucor racemosus 27784; 24 hours", "result": 2, "unit": "µg/mL"},
      {"measurement": "MIC, 100% inhibition", "setting": "Mucor racemosus 27784; 24 hours", "result": 4, "unit": "µg/mL"},
      {"measurement": "MIC, 50% inhibition", "setting": "Mucor racemosus 27784; 48 hours", "result": "-"},
      {"measurement": "MIC, 100% inhibition", "setting": "Mucor racemosus 27784; 48 hours", "result": 4, "unit": "µg/mL"},
      {"measurement": "MIC, 50% inhibition", "setting": "Aspergillus flavus 28517; 24 hours", "result": "-"},
      {"measurement": "MIC, 100% inhibition", "setting": "Aspergillus flavus 28517; 24 hours", "result": 4, "unit": "µg/mL"},
      {"measurement": "MIC, 50% inhibition", "setting": "Aspergillus flavus 28517; 48 hours", "result": "-"},
      {"measurement": "MIC, 100% inhibition", "setting": "Aspergillus flavus 28517; 48 hours", "result": 4, "unit": "µg/mL"},
      {"measurement": "MIC, 50% inhibition", "setting": "Aspergillus flavus 28445; 24 hours", "result": 2, "unit": "µg/mL"},
      {"measurement": "MIC, 100% inhibition", "setting": "Aspergillus flavus 28445; 24 hours", "result": 4, "unit": "µg/mL"},
      {"measurement": "MIC, 50% inhibition", "setting": "Aspergillus flavus 28445; 48 hours", "result": "-"},
      {"measurement": "MIC, 100% inhibition", "setting": "Aspergillus flavus 28445; 48 hours", "result": 4, "unit": "µg/mL"},
      {"measurement": "MIC, 50% inhibition", "setting": "Candida tropicalis 9624; 24 hours", "result": "-"},
      {"measurement": "MIC, 100% inhibition", "setting": "Candida tropicalis 9624; 24 hours", "result": 2, "unit": "µg/mL"},
      {"measurement": "MIC, 50% inhibition", "setting": "Candida tropicalis 9624; 48 hours", "result": "-"},
      {"measurement": "MIC, 100% inhibition", "setting": "Candida tropicalis 9624; 48 hours", "result": 2, "unit": "µg/mL"},
      {"measurement": "MIC, 50% inhibition", "setting": "[4]; 24 hours", "result": 2, "unit": "µg/mL"},
      {"measurement": "MIC, 100% inhibition", "setting": "[4]; 24 hours", "result": 4, "unit": "µg/mL"},
      {"measurement": "MIC, 50% inhibition", "setting": "[4]; 48 hours", "result": "-"},
      {"measurement": "MIC, 100% inhibition", "setting": "[4]; 48 hours", "result": 8, "unit": "µg/mL"},
      {"measurement": "MIC, 50% inhibition", "setting": "[5]; 24 hours", "result": "-"},
      {"measurement": "MIC, 100% inhibition", "setting": "[5]; 24 hours", "result": 4, "unit": "µg/mL"},
      {"measurement": "MIC, 50% inhibition", "setting": "[5]; 48 hours", "result": "-"},
      {"measurement": "MIC, 100% inhibition", "setting": "[5]; 48 hours", "result": 4, "unit": "µg/mL"},
      {"measurement": "MIC, 50% inhibition", "setting": "Candida glabrata 25742; 24 hours", "result": "-"},
      {"measurement": "MIC, 100% inhibition", "setting": "Candida glabrata 25742; 24 hours", "result": 2, "unit": "µg/mL"},
      {"measurement": "MIC, 50% inhibition", "setting": "Candida glabrata 25742; 48 hours", "result": "-"},
      {"measurement": "MIC, 100% inhibition", "setting": "Candida glabrata 25742; 48 hours", "result": 2, "unit": "µg/mL"},
      {"measurement": "MIC, 50% inhibition", "setting": "[6]", "result": "-"},
      {"measurement": "MIC, 100% inhibition", "setting": "[6]", "result": 2, "unit": "µg/mL"},
      {"measurement": "MIC, 50% inhibition", "setting": "Candida krusei 9541; 24 hours", "result": 2, "unit": "µg/mL"},
      {"measurement": "MIC, 100% inhibition", "setting": "Candida krusei 9541; 24 hours", "result": 4, "unit": "µg/mL"},
      {"measurement": "MIC, 50% inhibition", "setting": "Candida krusei 9541; 48 hours", "result": "-"},
      {"measurement": "MIC, 100% inhibition", "setting": "Candida krusei 9541; 48 hours", "result": 4, "unit": "µg/mL"},
      {"measurement": "MIC", "setting": "[7]; CLSI M27-A3, alkyne-OF vs native comparison (S2 Table)", "result": 0.125, "unit": "µg/mL"},
      {"measurement": "MIC", "setting": "[7]; parent strain of deletion mutants (S4 Table)", "result": 0.25, "unit": "µg/mL"}
    ]}
  ]
}
